Test results: paper PMC5218480 (PLoS ONE, 2017)

Tested on: MV-4-11 cells
Test: Gene expression microarray analysis (Affymetrix PrimeView) and GSEA
Format: cell-based, human
Set-up: RFU PODN (11730768_x_at) / Fold change /veh PODN (11730768_x_at) / RFU LINC00158 (11744669_a_at) / Fold change /veh LINC00158 (11744669_a_at) / RFU DUSP10 (11751237_a_at) / Fold change /veh DUSP10 (11751237_a_at) / RFU ID3 (11757404_x_at) / Fold change /veh ID3 (11757404_x_at) / RFU PLEKHG5 (11737974_s_at) / Fold change /veh PLEKHG5 (11737974_s_at) / RFU LRRC4B (11730491_at) / Fold change /veh LRRC4B (11730491_at) / RFU GIMAP4 (11747438_a_at) / Fold change /veh GIMAP4 (11747438_a_at) / RFU KRT8 (11758183_x_at) / Fold change /veh KRT8 (11758183_x_at) / RFU CNN1 (11734310_a_at) / Fold change /veh CNN1 (11734310_a_at) / RFU VPS37D (11726825_at) / Fold change /veh VPS37D (11726825_at) / RFU C10orf10 (11716522_x_at) / Fold change /veh C10orf10 (11716522_x_at) / RFU KIR2DL2 /// KIR2DL4 /// KIR2DL5A /// KIR2DL5B /// KIR2DS1 /// KIR2DS2 /// KIR2DS3 /// KIR2DS4 /// KIR3DL3 /// KIR3DL3 /// KIR3DS1 (11738374_at) / Fold change /veh KIR2DL2 /// KIR2DL4 /// KIR2DL5A /// KIR2DL5B /// KIR2DS1 /// KIR2DS2 /// KIR2DS3 /// KIR2DS4 /// KIR3DL3 /// KIR3DL3 /// KIR3DS1 (11738374_at) / RFU C1QL1 (11718748_at) / Fold change /veh C1QL1 (11718748_at) / RFU TMPRSS4 (11747572_a_at) / Fold change /veh TMPRSS4 (11747572_a_at) / RFU HAMP (11756126_x_at) / Fold change /veh HAMP (11756126_x_at) / RFU RNFT2 (11725882_a_at) / Fold change /veh RNFT2 (11725882_a_at) / RFU NR4A2 (11747474_a_at) / Fold change /veh NR4A2 (11747474_a_at) / RFU ABCC12 (11746883_a_at) / Fold change /veh ABCC12 (11746883_a_at) / RFU TMEM136 (11760407_x_at) / Fold change /veh TMEM136 (11760407_x_at) / RFU CLDN22 /// WWC2 (11732394_at) / Fold change /veh CLDN22 /// WWC2 (11732394_at) / RFU HLA-DPB1 (11760878_x_at) / Fold change /veh HLA-DPB1 (11760878_x_at) / RFU SPINT1 (11716480_a_at) / Fold change /veh SPINT1 (11716480_a_at) / RFU GAP43 (11754022_s_at) / Fold change /veh GAP43 (11754022_s_at) / RFU A4GNT (11735810_at) / Fold change /veh A4GNT (11735810_at) / RFU PRB3 (11715151_x_at) / Fold change /veh PRB3 (11715151_x_at) / RFU TUBB4B (11761932_at) / Fold change /veh TUBB4B (11761932_at) / RFU CAPN14 (11732068_a_at) / Fold change /veh CAPN14 (11732068_a_at) / RFU TMCC2 (11721928_a_at) / Fold change /veh TMCC2 (11721928_a_at) / RFU IRGQ (11745062_a_at) / Fold change /veh IRGQ (11745062_a_at) / RFU FAM174B (11720279_a_at) / Fold change /veh FAM174B (11720279_a_at) / RFU TMPRSS4 (11748680_a_at) / Fold change /veh TMPRSS4 (11748680_a_at) / RFU FAM212B (11763350_a_at) / Fold change /veh FAM212B (11763350_a_at) / RFU PLEKHG5 (11743358_a_at) / Fold change /veh PLEKHG5 (11743358_a_at) / RFU ZSCAN30 (11745921_a_at) / Fold change /veh ZSCAN30 (11745921_a_at) / RFU CMKLR1 (11741424_a_at) / Fold change /veh CMKLR1 (11741424_a_at) / RFU LOC101060620 /// MAPK8IP1 (11723275_at) / Fold change /veh LOC101060620 /// MAPK8IP1 (11723275_at) / RFU SPTSSB (11747773_x_at) / Fold change /veh SPTSSB (11747773_x_at) / RFU PRSS12 (11739890_at) / Fold change /veh PRSS12 (11739890_at) / RFU BIN1 (11741810_x_at) / Fold change /veh BIN1 (11741810_x_at) / RFU WNT11 (11732464_a_at) / Fold change /veh WNT11 (11732464_a_at) / RFU C10orf10 (11716521_a_at) / Fold change /veh C10orf10 (11716521_a_at) / RFU C5orf56 (11738089_at) / Fold change /veh C5orf56 (11738089_at) / RFU CYB561 (11721691_x_at) / Fold change /veh CYB561 (11721691_x_at) / RFU ANKRD19P (11752326_a_at) / Fold change /veh ANKRD19P (11752326_a_at) / RFU OR2T12 /// OR2T33 /// OR2T8 (11738714_s_at) / Fold change /veh OR2T12 /// OR2T33 /// OR2T8 (11738714_s_at) / RFU VCAN (11748164_a_at) / Fold change /veh VCAN (11748164_a_at) / RFU JSRP1 (11732532_at) / Fold change /veh JSRP1 (11732532_at) / RFU KRTAP10-11 (11738290_x_at) / Fold change /veh KRTAP10-11 (11738290_x_at) / RFU MYO3A (11730013_a_at) / Fold change /veh MYO3A (11730013_a_at) / RFU EBF3 (11725865_a_at) / Fold change /veh EBF3 (11725865_a_at) / RFU CAMK2N1 (11719241_x_at) / Fold change /veh CAMK2N1 (11719241_x_at) / RFU C5orf56 (11738088_a_at) / Fold change /veh C5orf56 (11738088_a_at) / RFU OLFML3 (11715873_a_at) / Fold change /veh OLFML3 (11715873_a_at) / RFU LOC100653217 /// NTM (11731650_a_at) / Fold change /veh LOC100653217 /// NTM (11731650_a_at) / RFU MAPK11 (11762145_a_at) / Fold change /veh MAPK11 (11762145_a_at) / RFU FIZ1 (11724087_x_at) / Fold change /veh FIZ1 (11724087_x_at) / RFU OASL (11726364_x_at) / Fold change /veh OASL (11726364_x_at) / RFU SOX15 (11748057_x_at) / Fold change /veh SOX15 (11748057_x_at) / RFU CD79A (11719716_a_at) / Fold change /veh CD79A (11719716_a_at) / RFU HIST1H1D (11736915_at) / Fold change /veh HIST1H1D (11736915_at) / RFU CASKIN2 (11723855_a_at) / Fold change /veh CASKIN2 (11723855_a_at) / RFU LOC730098 (11760151_x_at) / Fold change /veh LOC730098 (11760151_x_at) / RFU OR4N2 (11742367_at) / Fold change /veh OR4N2 (11742367_at) / RFU PRRT2 (11749266_a_at) / Fold change /veh PRRT2 (11749266_a_at) / RFU SNX32 (11753110_a_at) / Fold change /veh SNX32 (11753110_a_at) / RFU CDHR5 (11726645_a_at) / Fold change /veh CDHR5 (11726645_a_at) / RFU RCAN1 (11760418_a_at) / Fold change /veh RCAN1 (11760418_a_at) / RFU FAM167A (11723789_a_at) / Fold change /veh FAM167A (11723789_a_at) / RFU FAM26E (11764081_at) / Fold change /veh FAM26E (11764081_at) / RFU ISYNA1 (11749810_s_at) / Fold change /veh ISYNA1 (11749810_s_at) / RFU ACY1 (11761880_at) / Fold change /veh ACY1 (11761880_at) / RFU 11764098_at / Fold change /veh 11764098_at / RFU SAMD14 (11745864_x_at) / Fold change /veh SAMD14 (11745864_x_at) / RFU NPB (11741838_a_at) / Fold change /veh NPB (11741838_a_at) / RFU TMPRSS6 (11731388_a_at) / Fold change /veh TMPRSS6 (11731388_a_at) / RFU KRTAP10-2 (11738614_at) / Fold change /veh KRTAP10-2 (11738614_at) / RFU ARHGAP8 /// PRR5-ARHGAP8 (11727945_x_at) / Fold change /veh ARHGAP8 /// PRR5-ARHGAP8 (11727945_x_at) / RFU KRTAP5-7 /// NADSYN1 (11734609_at) / Fold change /veh KRTAP5-7 /// NADSYN1 (11734609_at) / RFU RASL12 (11751679_a_at) / Fold change /veh RASL12 (11751679_a_at) / RFU CDKN2B (11736163_a_at) / Fold change /veh CDKN2B (11736163_a_at) / RFU PRF1 (11729649_at) / Fold change /veh PRF1 (11729649_at) / RFU, ZNF638 /// ZNF638-IT1 / Fold change vs veh, ZNF638 /// ZNF638-IT1 / RFU, PANK3 / Fold change vs veh, PANK3 / RFU, SH3YL1 / Fold change vs veh, SH3YL1 / RFU, ZEB2 / Fold change vs veh, ZEB2 / RFU, NRIP1 / Fold change vs veh, NRIP1 / RFU, PTTG1IP / Fold change vs veh, PTTG1IP / RFU, CAPN2 / Fold change vs veh, CAPN2 / RFU, MED14 / Fold change vs veh, MED14 / RFU, SNORA58 / Fold change vs veh, SNORA58 / RFU, C1orf63 / Fold change vs veh, C1orf63 / RFU, LRRFIP1 / Fold change vs veh, LRRFIP1 / RFU, NDUFAF7 / Fold change vs veh, NDUFAF7 / RFU, SLC12A2 / Fold change vs veh, SLC12A2 / RFU, IBTK / Fold change vs veh, IBTK / RFU, ESF1 / Fold change vs veh, ESF1 / Fold change vs veh, TMEM50B / RFU, TAOK1 / Fold change vs veh, TAOK1 / RFU, ACBD3 / Fold change vs veh, ACBD3 / RFU, TMA16 / Fold change vs veh, TMA16 / RFU, RWDD3 / Fold change vs veh, RWDD3 / RFU, BCAT1 / Fold change vs veh, BCAT1 / RFU, EDEM3 / Fold change vs veh, EDEM3 / RFU, TMEM33 / Fold change vs veh, TMEM33 / RFU, WDR75 / Fold change vs veh, WDR75 / RFU, AHCTF1 / Fold change vs veh, AHCTF1 / RFU, TFRC / Fold change vs veh, TFRC / RFU, ZDHHC17 / Fold change vs veh, ZDHHC17 / RFU, NOM1 / Fold change vs veh, NOM1 / RFU, ARL8B / Fold change vs veh, ARL8B / RFU, ZBTB11 / Fold change vs veh, ZBTB11 / RFU, TAMM41 / Fold change vs veh, TAMM41 / RFU, KIAA1704 /// LOC100996395 / Fold change vs veh, KIAA1704 /// LOC100996395 / RFU, ING1 / Fold change vs veh, ING1 / RFU, TRMT61B / Fold change vs veh, TRMT61B / RFU, FUBP3 / Fold change vs veh, FUBP3 / RFU, TP53 / Fold change vs veh, TP53 / RFU, TNKS2 / Fold change vs veh, TNKS2 / RFU, ZFP14 / Fold change vs veh, ZFP14 / RFU, ACTR2 / Fold change vs veh, ACTR2 / RFU, PPP3R1 / Fold change vs veh, PPP3R1 / RFU, PIK3R1 / Fold change vs veh, PIK3R1 / RFU, HNRNPA1 / Fold change vs veh, HNRNPA1 / RFU, RNF170 / Fold change vs veh, RNF170 / RFU, ZNF28 / Fold change vs veh, ZNF28 / RFU, RNGTT / Fold change vs veh, RNGTT / RFU, OGT / Fold change vs veh, OGT / RFU, BRD1 / Fold change vs veh, BRD1 / RFU, MARS / Fold change vs veh, MARS / RFU, ZNF655 / Fold change vs veh, ZNF655 / RFU, FAHD1 / Fold change vs veh, FAHD1 / RFU, BDP1 / Fold change vs veh, BDP1 / RFU, LRRCC1 / Fold change vs veh, LRRCC1 / RFU, ARID1A / Fold change vs veh, ARID1A / RFU, ZNF146 / Fold change vs veh, ZNF146 / RFU, ZNF330 / Fold change vs veh, ZNF330 / RFU, GPN3 / Fold change vs veh, GPN3 / RFU, C9orf123 / Fold change vs veh, C9orf123 / RFU, N4BP2L2 / Fold change vs veh, N4BP2L2 / RFU, ARFIP1 / Fold change vs veh, ARFIP1 / RFU, FAM179B / Fold change vs veh, FAM179B / RFU, BCL10 / Fold change vs veh, BCL10 / RFU, UHRF1BP1L / Fold change vs veh, UHRF1BP1L / RFU, BET1 / Fold change vs veh, BET1 / RFU, CNOT2 / Fold change vs veh, CNOT2 / RFU, ZNF268 / Fold change vs veh, ZNF268 / Fold change vs veh, ZNF507 / RFU, DGCR2 / Fold change vs veh, DGCR2 / RFU, WDSUB1 / Fold change vs veh, WDSUB1 / Fold change vs veh, HSP90B1 /// MIR3652 / RFU, ADSS / Fold change vs veh, ADSS / RFU, GK / Fold change vs veh, GK / RFU, ZNF148 / Fold change vs veh, ZNF148 / RFU, TAF9 / Fold change vs veh, TAF9 / RFU, SLC1A5 / Fold change vs veh, SLC1A5 / RFU, SLMO2 / Fold change vs veh, SLMO2 / RFU, ABCC4 / Fold change vs veh, ABCC4 / RFU, LOC101060439 /// RAP1B / Fold change vs veh, LOC101060439 /// RAP1B / RFU, RFX7 / Fold change vs veh, RFX7 / RFU, GTPBP10 / Fold change vs veh, GTPBP10 / RFU, CNEP1R1 / Fold change vs veh, CNEP1R1 / RFU, BIVM-ERCC5 /// ERCC5 / Fold change vs veh, BIVM-ERCC5 /// ERCC5 / RFU, ILF3 / Fold change vs veh, ILF3 / RFU 11762660_at / Fold change /veh 11762660_at / RFU VCAN (11757783_s_at) / Fold change /veh VCAN (11757783_s_at) / RFU DDX43 (11728927_at) / Fold change /veh DDX43 (11728927_at) / RFU KRT8 (11758188_x_at) / Fold change /veh KRT8 (11758188_x_at) / RFU NKD1 (11759106_at) / Fold change /veh NKD1 (11759106_at) / RFU SRD5A1 (11742802_a_at) / Fold change /veh SRD5A1 (11742802_a_at) / RFU TPSAB1 /// TPSB2 (11721975_s_at) / Fold change /veh TPSAB1 /// TPSB2 (11721975_s_at) / RFU GSTM3 (11746129_a_at) / Fold change /veh GSTM3 (11746129_a_at) / RFU IL23R (11737362_x_at) / Fold change /veh IL23R (11737362_x_at) / RFU TMEM51 (11727254_a_at) / Fold change /veh TMEM51 (11727254_a_at) / RFU PIWIL2 (11732686_x_at) / Fold change /veh PIWIL2 (11732686_x_at) / RFU ORM1 (11744905_x_at) / Fold change /veh ORM1 (11744905_x_at) / RFU CCDC152 (11743942_at) / Fold change /veh CCDC152 (11743942_at) / RFU ECM1 (11717891_a_at) / Fold change /veh ECM1 (11717891_a_at) / RFU IL23R (11748794_a_at) / Fold change /veh IL23R (11748794_a_at) / RFU TNFAIP8L3 (11732012_x_at) / Fold change /veh TNFAIP8L3 (11732012_x_at) / RFU MBOAT4 (11741988_at) / Fold change /veh MBOAT4 (11741988_at) / RFU 11764193_at / Fold change /veh 11764193_at / RFU TMEM53 (11763286_at) / Fold change /veh TMEM53 (11763286_at) / RFU MAGEB2 (11727129_at) / Fold change /veh MAGEB2 (11727129_at) / RFU TMEM200A (11744735_a_at) / Fold change /veh TMEM200A (11744735_a_at) / RFU CCDC152 (11751479_a_at) / Fold change /veh CCDC152 (11751479_a_at) / RFU FAM211A (11726209_a_at) / Fold change /veh FAM211A (11726209_a_at) / RFU RGS16 (11746705_a_at) / Fold change /veh RGS16 (11746705_a_at) / RFU VCAN (11755009_s_at) / Fold change /veh VCAN (11755009_s_at) / RFU RHOB (11743442_s_at) / Fold change /veh RHOB (11743442_s_at) / RFU RGS16 (11720943_a_at) / Fold change /veh RGS16 (11720943_a_at) / RFU RGS16 (11720944_at) / Fold change /veh RGS16 (11720944_at) / RFU, VPS4B / Fold change vs veh, VPS4B / RFU, CREB1 / Fold change vs veh, CREB1 / RFU, DNAJC13 / Fold change vs veh, DNAJC13 / RFU, GNAQ / Fold change vs veh, GNAQ / RFU, CDK5R1 / Fold change vs veh, CDK5R1 / RFU, ZRANB3 / Fold change vs veh, ZRANB3 / RFU, CUL4A / Fold change vs veh, CUL4A / RFU, CCNY / Fold change vs veh, CCNY / RFU, UFL1 / Fold change vs veh, UFL1 / RFU, COG3 / Fold change vs veh, COG3 / RFU, DIAPH2 / Fold change vs veh, DIAPH2 / RFU, SKA2 / Fold change vs veh, SKA2 / RFU, AFF3 / Fold change vs veh, AFF3 / RFU, LMF1 / Fold change vs veh, LMF1 / RFU, IPO11 / Fold change vs veh, IPO11 / RFU, DFFB / Fold change vs veh, DFFB / RFU, FOXP1 / Fold change vs veh, FOXP1 / RFU, CARD8 / Fold change vs veh, CARD8 / RFU, STRN3 / Fold change vs veh, STRN3 / RFU, ADK / Fold change vs veh, ADK / RFU, RASSF2 / Fold change vs veh, RASSF2 / RFU, WIPF1 / Fold change vs veh, WIPF1 / RFU, LARP1B / Fold change vs veh, LARP1B / RFU, RASA1 / Fold change vs veh, RASA1 / RFU, RB1 / Fold change vs veh, RB1 / RFU, PPFIA1 / Fold change vs veh, PPFIA1 / RFU, MAT2A / Fold change vs veh, MAT2A / RFU, CCT5 / Fold change vs veh, CCT5 / RFU, WDR92 / Fold change vs veh, WDR92 / RFU, CUX1 / Fold change vs veh, CUX1 / RFU, TTC7A / Fold change vs veh, TTC7A / RFU, TMEM135 / Fold change vs veh, TMEM135 / RFU, DEPTOR / Fold change vs veh, DEPTOR / RFU, CPM / Fold change vs veh, CPM / RFU, DNAJB6 / Fold change vs veh, DNAJB6 / RFU, CACNA2D3 / Fold change vs veh, CACNA2D3 / RFU, DTX4 / Fold change vs veh, DTX4 / RFU, TFCP2 / Fold change vs veh, TFCP2 / RFU, GMCL1 /// GMCL1P1 / Fold change vs veh, GMCL1 /// GMCL1P1 / RFU, AEBP2 / Fold change vs veh, AEBP2 / RFU, SNHG1 /// SNORD22 /// SNORD25 /// SNORD26 /// SNORD27 /// SNORD28 /// SNORD29 /// SNORD31 / Fold change vs veh, SNHG1 /// SNORD22 /// SNORD25 /// SNORD26 /// SNORD27 /// SNORD28 /// SNORD29 /// SNORD31 / Fold change (Aza/veh), C12orf56 (ProbeSet 11735607_a_at) / Fold change (ACY-1035/veh), C12orf56 (ProbeSet 11735607_a_at) / Fold change (Aza/veh), FGFR1OP (ProbeSet 11751329_s_at) / Fold change (ACY-1035/veh), FGFR1OP (ProbeSet 11751329_s_at) / Fold change (Aza/veh), VPS36 (ProbeSet 11739960_a_at) / Fold change (ACY-1035/veh), VPS36 (ProbeSet 11739960_a_at) / RFU SYPL1 (11715823_x_at) / Fold change /veh SYPL1 (11715823_x_at) / RFU IGFBP7 (11715501_s_at) / Fold change /veh IGFBP7 (11715501_s_at) / RFU REEP3 (11722064_at) / Fold change /veh REEP3 (11722064_at) / RFU IGLL1 (11728026_x_at) / Fold change /veh IGLL1 (11728026_x_at): dose or concentration left out as unconfirmed
Conditions: MV-4-11 cells, 48 hours

For Nc1ncn([C@@H]2O[C@H](CO)[C@@H](O)[C@H]2O)c(=O)n1 [azacitidine], the “Fold change /veh KRTAP5-7 /// NADSYN1 (11734609_at)” value was 1.00.
